Where “and” joins values, the source holds several entries; their conditions need not be identical. Identical values can stand only once. Entries after “also recorded” stand apart in the source; their conditions may differ. Counter-ions that a name gives are not always drawn.
How the values were obtained:
[1] = tested on: IL-6 receptor; assay: Radioreceptor assay: binding of 125I-IL-6 to U266 cells; design: species or system human; conditions: for binding of radioactive IL-6 to U266 cells: 90 minutes at 4° C., increasing amounts of compound
Protocol: This experiment analyzed whether suramin inhibits IL-6 bioactivity by interfering with binding to the IL-6 receptor. Into eighteen test tubes was placed U266 indicator cells (obtained from ATCC), a binding buffer, made up of RPMI medium, 0.1 mg BSA and […] Hepes, and 100,000 cpm (0.8 ng) of ^125 I-IL-6. The tubes were divided into six groups of three tubes each and received suramin as follows: group 1 had 300 uM suramin; group 2 had 100 uM suramin; group 3 had 30 uM suramin; group 4 had 10 uM suramin; and group 5 had no suramin, but only medium (control for maximal binding). In addition, group 6 received excess unlabeled IL-6 without suramin for use in determining the background of binding in this assay.
After 90 minutes of incubation at 4° C. and the centrifugation of cells on oil (a standard radioreceptor assay) Strassmann, J. Immunol., 147:1279-1289 (1991), the amount of radioactivity bound to the cells was determined. […] Also, the addition of increasing amounts of suramin prevented the binding of radioactive IL-6 to U266 human myeloma indicator cells in vitro as reflected in the results set forth in FIG. 6.
The same procedure set forth in Example 6 was followed, except that Pentosan polysulfate was used instead of Suramin.

[2] = tested on: IL-6; assay: IL-6 dependent proliferation of B-9 cells (3H-thymidine incorporation); format: cell-based; conditions: for cpm of 3H-thymidine, B-9 cells: Table 3; for proliferation of B-9 cells in response to IL-6: result in words; for cpm of 3H-thymidine incorporation, B-9 cells: Table 5
Protocol: A standard proliferation assay, Strassmann et al., J. Immunol., 147:1279-1285 (1991), was conducted using 96 well plates The medium used was RPMI with 10% fetal calf serum B-9 cells were added and were cultured for 3 days. The extent of proliferation of B-9 cells was determined by the incorporation of radioactive thymidine as described in Strassmann et al., J. Clin. Invest., 89, pp. 1681-84 (May 1992). […] (See Strassmann et al., J. Clin. Invest., 89, pp. 1681-84 (May 1992), incorporated herein by reference.)
The same procedures set forth in Example 5 was followed except that a different sulfate-containing compound, Pentosan polysulfate, was used.
The same procedure set forth in Example 5 was followed except in this example, Dextran sulfate and Dextran, were used instead of Suramin.

[3] = tested on: cachexia-inducing action of CF; conditions: Silva et al., Infection and Immunity 1988; cited from earlier work
[4] = tested on: C-26 cachexia; assay: Time course of C-26 mediated weight loss and tumor volume (Example 2); format: in vivo, mice; conditions: 100 mg/kg intraperitoneally days 7 and 12
Protocol: In subsequent experiments, eight mice obtained from the same source as above were injected with 0.5 ml PBS intraperitoneally and eight other mice from the same source as above were injected with 100 mg/kg body weight of suramin intraperitoneally. The injections were given on days 7 and 12. The weight of the two groups was measured several times a week.

[5] = tested on: C-26.IVX cells derived from the colon adenocarcinoma; assay: Suramin blocks C-26 mediated cachexia (Example 1); format: in vivo, mice; conditions: 200 mg/kg I.P. d7, 13
Protocol: Eleven male mice (CD)2F1 obtained from Charles Rivers Laboratories were weighed and then were inoculated with 0.5×10^6 C-26.IVX cells derived from the colon adenocarcinoma (by the procedure described in Strassmann et al., J. Clin. Invest., 89, pp. 1681-84 (May 1992) which is incorporated herein by reference). The day of inoculation was identified as day 0 (d0). On days 7 and 13, five of these mice each received intraperitoneally 0.5 ml of PBS (phosphate buffered saline) and the other six mice each received intraperitoneally 200 mg/kg body weight of suramin diluted in 0.5 ml PBS. On day 19, all the mice were sacrificed and the final total weight, the host weight, the tumor weight, epididymal fat, and dry weight were measured.

[6] = tested on: 125I-IL-6; assay: 125I-IL-6 sequestration in vivo (liver, kidney, spleen radioactivity); design: species or system mice; conditions: for Kidney radioactivity / Liver radioactivity / Spleen radioactivity: 5 mg/mouse, mean ± 0.5 range of 2 mice
Protocol: The ability to prevent binding of IL-6 in vivo was analyzed as follows. Eight mice received 5.0 mg/mouse of suramin intravenously and eight other mice received 0.2 ml PBS/mouse intravenously 0.5 hour. Thereafter, all sixteen of the mice received an injection of 300,000 cpm (2.4 ng) of ^125 I-IL-6. Four mice from each group were sacrificed 30 minutes after receiving the ^125 I-IL-6 and the remaining four mice from each group were sacrificed 60 minutes after receiving the ^125 I-IL-6. The liver, kidney, and spleen were removed and measured for radioactivity (cpm).

[7] = tested on: turpentine-induced wasting; assay: Turpentine-induced wasting (Example 4); format: in vivo, mice; conditions: 100 mg/kg intraperitoneally day -3, 0.1 ml turpentine i.m. day 0, FIG. 4
Protocol: (See Gershenwald et al., "Interleukin 1 receptor blockade attenuates the host inflammatory response" Proc. Natl. Acad. Sci., 87 4966-70, (July, 1990) for a description of the turpentine-induced wasting procedure). In this experiment, three days before day 0 (day -3), five male (CD)2F1 mice, obtained from Charles Rivers Laboratories, each received intraperitoneally 0.5 ml of PBS. Five other mice obtained from the same source each received intraperitoneally 100 mg/kg body weight suramin diluted with 0.5 ml of PBS.

[8] = tested on: C-26 cachexia; assay: Dose dependence of C-26 cachexia inhibition (Example 3); format: in vivo, mice; conditions: increasing amounts intraperitoneally; day 17; FIG. 3
Protocol: Mice were obtained and injected with C-26 cells as set forth above for Example 1, and then were put into four groups of five mice each. The mice were injected intraperitoneally with increasing amounts of suramin as indicated in FIG. 3 except for the control mice. On day 17, the total weight of each group was compared to a control group of five mice which had been injected with 0.5 ml PBS intraperitoneally.

[9] = 5.0 mg/mouse intravenously 0.5 hour before 125I-IL-6

Pentosan polysulfate
cpm 125I-IL-6 bound to U266 cells ([1]; 3 μM): 3000 cpm | cpm 125I-IL-6 bound to U266 cells ([1]; 30 μM): 2575 cpm | cpm 125I-IL-6 bound to U266 cells ([1]; 300 μM): 2003 cpm | binding of radioactive IL-6 to U266 cells [1]: inhibited the binding of radioactive IL-6 to U266 human myeloma cells | cpm of 3H-thymidine, B-9 cells ([2]; compound 300 μM, IL-6 added 1 pg/ml): 1567 cpm | cpm of 3H-thymidine, B-9 cells ([2]; compound 300 μM, IL-6 added 3 pg/ml): 2648 cpm | cpm of 3H-thymidine, B-9 cells ([2]; compound 300 μM, IL-6 added 10 pg/ml): 11456 cpm | cpm of 3H-thymidine, B-9 cells ([2]; compound 300 μM, IL-6 added 30 pg/ml): 60287 cpm | cpm of 3H-thymidine, B-9 cells ([2]; compound 1000 μM, IL-6 added 1 pg/ml): 795 cpm | cpm of 3H-thymidine, B-9 cells ([2]; compound 1000 μM, IL-6 added 3 pg/ml): 1062 cpm | cpm of 3H-thymidine, B-9 cells ([2]; compound 1000 μM, IL-6 added 10 pg/ml): 3586 cpm | cpm of 3H-thymidine, B-9 cells ([2]; compound 1000 μM, IL-6 added 30 pg/ml): 26727 cpm | proliferation of B-9 cells in response to IL-6 [2]: prevented the proliferation of B-9 cells

C[C@@H]1C[C@H]2[C@@H]3CCC4=CC(=O)C=C[C@]4(C)[C@@]3(F)[C@@H](O)C[C@]2(C)[C@@]1(O)C(=O)CO [Dexamethasone]
cachexia-inducing action of CF [3]: partially inhibit the cachexia-inducing action of CF

Dextran
cpm of 3H-thymidine incorporation, B-9 cells ([2]; compound 30 μM, IL-6 3 pg/ml): 24007 cpm | cpm of 3H-thymidine incorporation, B-9 cells ([2]; compound 30 μM, IL-6 10 pg/ml): 143003 cpm | cpm of 3H-thymidine incorporation, B-9 cells ([2]; compound 30 μM, IL-6 30 pg/ml): 231856 cpm | cpm of 3H-thymidine incorporation, B-9 cells ([2]; compound 100 μM, IL-6 3 pg/ml): 29577 cpm | cpm of 3H-thymidine incorporation, B-9 cells ([2]; compound 100 μM, IL-6 10 pg/ml): 136191 cpm | cpm of 3H-thymidine incorporation, B-9 cells ([2]; compound 100 μM, IL-6 30 pg/ml): 230321 cpm | cpm of 3H-thymidine incorporation, B-9 cells ([2]; compound 300 μM, IL-6 3 pg/ml): 27015 cpm | cpm of 3H-thymidine incorporation, B-9 cells ([2]; compound 300 μM, IL-6 10 pg/ml): 140903 cpm | cpm of 3H-thymidine incorporation, B-9 cells ([2]; compound 300 μM, IL-6 30 pg/ml): 245701 cpm | proliferation of B-9 cells in response to IL-6 [2]: did not prevent the proliferation of B-9 cells in response to IL-6

hIL-6: excess unlabeled IL-6 used for determining the background of binding in the radioreceptor assay
cpm 125I-IL-6 bound to U266 cells ([1]; 270 ng/ml unlabeled competitor (background of binding)): 1416 cpm

Cc1ccc(C(=O)Nc2ccc(S(=O)(=O)O)c3cc(S(=O)(=O)O)cc(S(=O)(=O)O)c23)cc1NC(=O)c1cccc(NC(=O)Nc2cccc(C(=O)Nc3cc(C(=O)Nc4ccc(S(=O)(=O)O)c5cc(S(=O)(=O)O)cc(S(=O)(=O)O)c45)ccc3C)c2)c1 [Suramin, 8-8'-[Carbonylbis[imino-3,1-phenylenecarbonylimino(4-methyl-3,1-phenylene)carbonylimino]]bis-1,3,5-naphthalenetrisulfonic acid hexasodium salt]
C-26 mediated weight loss over time ([4]; FIG. 1): inhibited C-26 mediated weight loss in a significant time dependent manner; also recorded: time dependent inhibition of C-26 cachexia | tumor (C-26) growth in vivo (tumor volume) ([4]; FIG. 2): no significant effect on the tumor (C-26) growth in-vivo except on day 19; also recorded: lack of effect | binding of radioactive IL-6 to U266 cells [1]: prevents binding of the IL-6 to the U266 cells in a dose dependent manner; also recorded: prevention of the binding of IL-6 to human myeloma cells | % weight loss ([5]; d19, individual mouse): 5.3% and 17.6% and 10.5% and 15.4% and 18.6% and 5.1% | Dry wt ([5]; d19, individual mouse): 7.8 g and 6.5 g and 6.6 g and 6.4 g | Final total wt. ([5]; d19, individual mouse): 25.9 g and 25.2 g and 26.2 g and 25.5 g and 25.4 g and 27.4 g | Host's wt. ([5]; d19, individual mouse): 25.0 g and 23.3 g and 24.2 g and 23.5 g and 23.1 g and 25.8 g | IL-6 ([5]; d19, individual mouse): 292 U/ml and 360 U/ml and 310 U/ml and 535 U/ml and 477 U/ml and 328 U/ml | Serum Glucose ([5]; d19, individual mouse): 128 mg/dL and 114 mg/dL and 100 mg/dL and 110 mg/dL and 109 mg/dL and 116 mg/dL | Tumor wt ([5]; d19, individual mouse): 0.93 g and 1.98 g and 2.08 g and 1.96 g and 2.36 g and 1.64 g | % weight loss ([5]; d19, mean ±SD of six mice): 12.0% | Dry wt ([5]; d19, mean ±SD of six mice): 6.7 ± 0.5 g | Host's wt. ([5]; d19, mean ±SD of six mice): 24.2 g | IL-6 ([5]; d19, mean ±SD of six mice): 384 U/ml | Serum Glucose ([5]; d19, mean ±SD of six mice): 113 ± 9 mg/dL | Tumor wt ([5]; d19, mean ±SD of six mice): 1.82 g | % weight loss ([5]; d19, mean ±SD of six mice, listed as suramin): 12.0±6.0% | Final total wt. ([5]; sacrificed d19, mean ±SD of six mice): 26.9 ± 0.8 g | less radioactivity measured in the liver versus PBS [6, 9]: approximately 50% | radioactive IL-6 present in the kidney [6, 9]: increase of radioactive IL-6 present in the kidney | Kidney radioactivity ([6]; Expt. 1, 30 minutes): 70151 ± 125 cpm | Liver radioactivity ([6]; Expt. 1, 30 minutes): 8385 ± 1525 cpm/gm | Spleen radioactivity ([6]; Expt. 1, 30 minutes): 1347 ± 295 cpm | Kidney radioactivity ([6]; Expt. 1, 60 minutes): 36595 ± 1760 cpm | Liver radioactivity ([6]; Expt. 1, 60 minutes): 4275 ± 91 cpm/gm | Spleen radioactivity ([6]; Expt. 1, 60 minutes): 630 ± 6 cpm | Kidney radioactivity ([6]; Expt. 2, 30 minutes): 57287 ± 2849 cpm | Liver radioactivity ([6]; Expt. 2, 30 minutes): 9277 ± 235 cpm/gm | Spleen radioactivity ([6]; Expt. 2, 30 minutes): 1306 ± 4 cpm | Kidney radioactivity ([6]; Expt. 2, 60 minutes): 38254 ± 466 cpm | Liver radioactivity ([6]; Expt. 2, 60 minutes): 5512 ± 379 cpm/gm | Spleen radioactivity ([6]; Expt. 2, 60 minutes): 631 ± 25 cpm | turpentine-induced weight loss [7]: exhibited no such weight loss; also recorded: prevention of turpentine-induced wasting | bioactivity of IL-6 (proliferation of B-9 cells) ([2]; preincubated with IL-6, 3 days culture, FIG. 5): inhibits the bioactivity of IL-6; also recorded: inhibition of bioactivity of IL-6 | percentage of weight loss (wasting) versus dose [8]: inhibited wasting in a dose dependent manner; also recorded: dose dependent inhibition of C-26 cachexia

Dextran sulfate
cpm of 3H-thymidine incorporation, B-9 cells ([2]; compound 30 μM, IL-6 3 pg/ml): 7603 cpm | cpm of 3H-thymidine incorporation, B-9 cells ([2]; compound 30 μM, IL-6 10 pg/ml): 68066 cpm | cpm of 3H-thymidine incorporation, B-9 cells ([2]; compound 30 μM, IL-6 30 pg/ml): 204155 cpm | cpm of 3H-thymidine incorporation, B-9 cells ([2]; compound 100 μM, IL-6 3 pg/ml): 8075 cpm | cpm of 3H-thymidine incorporation, B-9 cells ([2]; compound 100 μM, IL-6 10 pg/ml): 31678 cpm | cpm of 3H-thymidine incorporation, B-9 cells ([2]; compound 100 μM, IL-6 30 pg/ml): 150233 cpm | cpm of 3H-thymidine incorporation, B-9 cells ([2]; compound 300 μM, IL-6 3 pg/ml): 2461 cpm | cpm of 3H-thymidine incorporation, B-9 cells ([2]; compound 300 μM, IL-6 10 pg/ml): 16573 cpm | cpm of 3H-thymidine incorporation, B-9 cells ([2]; compound 300 μM, IL-6 30 pg/ml): 112835 cpm | proliferation of B-9 cells in response to IL-6 [2]: prevented the proliferation of B-9 cells in response to IL-6

From patent publication US5453444A, “Method to mitigate or eliminate weight loss” (Otsuka Pharmaceutical Co., Ltd., priority 1994, dated 1995)
